Assay results taken from patent US6492329B1, “Cytokine and hemopoietic factor endogenous production enhancer and methods of use thereof” (Novelos Therapeutics, Inc., priority 1995, dated 2002).

Columns and labels:
leukemia P388 cells [1] = assay: Leukemia P388 in mice: ascitic fluid and survival (Example 14); settings: for Accumulation of ascitic (weight gain, %): leukemia P388; for Mean survival time: mice inoculated with leukemia P388 cells
Procedure: (§6) An influence of 7 day course of test article daily administration was studied in respect of tumor progression, which was estimated using the two integral indices: pace of mouse weight gain due to accumulation of ascitic fluid, and by animal mean survival time after inoculation.
(§7) The study was carried out on DBA/2 mice weighing 18-21 g. First, tumor cell passage was performed using 6 animals for each cell line. For this, cells kept at the temperature of the liquid nitrogen were de-frozen and adjusted to the concentration of 5×10^6 cells/mL by sterile Hanks' solution. Then, 6 mice were intra peritoneally inoculated with 0.2 mL of each line cellular suspension.
(§8) Ascitic fluid was collected 6 days after the inoculation with L1210 cells, 8 days after the inoculation with P388 ones and 18 days after inoculation with Erlich adenocarcinoma cells. Thus obtained, the samples of passaged tumor cells were used for the main experiments. The fluid liquid was dissolved by sterile Hanks' solution so that cell concentration be 5×10^6 cells/mL for P388 cells and Erlich adenocarcinoma cells, 5×10^5 cells/mL for L1210 cells.
(§9) Eleven groups of animals with no less than 15 mice each were formed for experiments with either tumor cell line. Mice were inoculated with 0.2 mL of resultant cell suspensions per mouse (10^6 P388 and Erlich adenocarcinoma cells/mouse, and 10^5 L1210 cells/mouse). 24 hours after the tumor cells inoculation, animals were given the first injections of the test articles or vehicles. The test article injections were made daily till the 14th day of the experiment or till the animal death. The volume of solutions injected comprised 0.01 mL/g body weight.
(§10) #1—intact animals receiving imitation of tumor cell inoculation (injection of normal saline) which further were treated with normal saline throughout the entire experiment;
(§11) #2—control animals, inoculated with tumor cells, which further were treated with test article vehicle (normal saline);

[2] = system: e-ras cells after UV-irradiation; assay: Number of clones of e-ras cells after UV-irradiation; type: cell-based, rat
Procedure: (§1) To this end, these substances had been incubated for 72 hours with cells of rat embrional fibroblasts (REF) and the same cells, transformed with adenoviral E1A gene in complementation with ras-oncogene (e-ras cell line). Subsequent evaluation of the cellularity of experimental samples was carried out by counting the quantity of cell per milliliter (for REF cell line) or clones in dish (for e-ras cell line).
(§2) Cells were cultivated on DMEM medium supplemented with 10% fetal calf serum and […] gentamicin. Cultivation was carried out in Petri dishes.
(§3) E-ras cells were seeded at a cell density of 300 cells per 5 cm dish. 7 days after growth of e-ras cells had been started the quantity of clones was evaluated and the test articles were added into the dishes.
(§4) For the test-system for estimation of apoptosis regulation UV-induced cell death was triggered in a dose of 4 Dj. Test articles were added immediately after irradiation. Then, the quantity of cell per milliliter (for REF cell line) or clones in dish (for e-ras cell line) were monitored every 24 hours. For determination of DNA-fragmentation the electrophoresis in agarose gel was used at standard settings.

[3] = system: Erlich adenocarcinoma cells; assay: Erlich adenocarcinoma in mice: ascitic fluid and survival (Example 14); settings: for Accumulation of ascitic (weight gain, %): Erlich adenocarcinoma; for Mean survival time: mice inoculated with Erlich adenocarcinoma cells
Procedure: as §6, §7, §8, §9, §10, §11

[4] = system: rat embrional fibroblasts (REF); assay: Number of REF cells throughout 72-hr incubation; type: cell-based
Procedure: as §1, §2
(§5) REF cells was cultivated with initial density of 800 000 cell per mL, evaluation of the cellularity was performed at 0, 24, 48 and 72 hours of incubation with the test articles.
as §4

[5] = system: rat embrional fibroblasts (REF) after UV-irradiation; assay: Number of REF cells after UV-irradiation; type: cell-based
Procedure: as §1, §2, §5, §4

[6] = system: e-ras cell line (REF transformed with E1A and ras-oncogene); assay: Number of clones of e-ras cells throughout 72-hr incubation; type: cell-based, rat
Procedure: as §1, §2, §3, §4

leukemia L1210 cells [7] = assay: Leukemia L1210 in mice: ascitic fluid and survival (Example 14); settings: for Accumulation of ascitic (weight gain, %): leukemia L1210; for Mean survival time: mice inoculated with leukemia L1210 cells
Procedure: as §6, §7, §8, §9, §10, §11

leukemia P388 cells [8] = assay: Leukemia P388 in mice: serum cytokines, ascitic fluid, survival (Example 5); settings: for Accumulation of ascitic fluid (weight gain) / Concentration in serum: IFNα / Concentration in serum: IL-1 / Concentration in serum: IL-2 / Concentration in serum: IL-6 / Concentration in serum: TNFα: P388 mice
Procedure: (§12) An influence of 7 day course of test article daily administration was studied in respect of variations of serum cytokine levels (IL-1, IL-2, IL-6, IFNα, TNF). In parallel, the tumor progression was estimated using the two integral indices: pace of mouse weight gain due to accumulation of ascitic fluid, and by animal mean survival time after inoculation.
(§13) The study was carried out on DBA/2 mice weighing 18-21 g. First, tumor cell passage was performed using 6 animals for each cell line. For this, cells kept at the temperature of the liquid nitrogen were de-frozen and adjusted to the concentration of 5×10^6 cells/mL by sterile Hanks' solution. Then, 6 mice were intraperitoneally inoculated with 0.2 mL of each line cellular suspension.
(§14) Ascitic fluid was collected 6 days after the inoculation with L1210 cells and 8 days after the inoculation with P388 ones. Thus obtained, the samples of passaged tumor cells were used for the main experiments. The fluid liquid was dissolved by sterile Hanks' solution so that cell concentration be 5×10^6 cells/mL for P388 cells and 5×10^5 cells/mL for L1210 cells.
(§15) Nine groups of animals with no less than 15 mice each were formed for experiments with either tumor cell line. Mice were inoculated with 0.2 mL of resultant cell suspensions per mouse (10^6 P388 cells/mouse, and 10^5 L1210 cells/mouse). 24 hours after the tumor cells inoculation. animals were given the first injections of the test articles or vehicles. The test article injections were made daily till the 14th day of the experiment or until the animal's death. The volume of solutions injected comprised 0.01 mL/g body weight.
as §10, §11

leukemia L1210 cells [9] = assay: Leukemia L1210 in mice: serum cytokines, ascitic fluid, survival (Example 5); settings: for Accumulation of ascitic fluid (weight gain) / Concentration in serum: IFNα / Concentration in serum: IL-1 / Concentration in serum: IL-2 / Concentration in serum: IL-6 / Concentration in serum: TNFα: L1210 mice
Procedure: as §12, §13, §14, §15, §10, §11

HL-60 cells = assay: Proliferation/apoptosis of HL-60 tumor cells (cell number per well, flow cytofluorometry)
Procedure: Subsequent evaluation of the cell cycle parameters was carried out by the flow cytofluorometry technique.
A mononuclear fraction of blood leukocytes were obtained by centrifugation in gradient of fikoll-metrizoat (Histopaque, Sigma). […] Cell viability was estimated by the Trypan blue exclusion method, then the cell suspension was placed into wells of 96-well microtiter plates—200,000 cells per well. […] Cultivation was carried out in closed flasks, the medium volume was 12 mL, it was changed every four days by centrifugation. The nature of the cells growth was suspensive. […] 50 μL of each test solution were added to one or the other cell culture and thereafter cells were cultivated for 24-96 hours. Then, they were tested by the flow cytofluorometry to estimate DNA content in the cell nuclei. In case of apoptosis-like cellular death, the portion of cell nuclei with normal content of DNA became reduced, while the portion of cell nuclei containing abnormally small DNA quantity became larger.
The analysis procedure was the following: after incubation completion, cells were centrifuged and transferred to a standard phosphate isotonic buffer pH 7.4, containing RNA-ase A (20 μg/mL), ethidium bromide (fluorometric indicator for double stranded nucleic acid. 10 μg/mL) and MgCl2 (5 mM). After the cells were disintegrated by nonionic detergent Triton X-100 (final concentration 0.1%). The suspension of cell nuclei thus obtained was analyzed by flow cytofluorometry with an argon laser as a source of light (wave length 488 nm). The red fluorescence due to DNA bound ethidium bromide was taken to be the measure of DNA content in the cell nuclei.

normal human lymphocytes = assay: Proliferation/apoptosis of normal human lymphocytes (cell number per well, flow cytofluorometry); type: cell-based

## NCCSSCCNC(=O)CNC(=O)C(CSSCC(NC(=O)CCC(N)C(=O)O)C(=O)NCC(=O)O)NC(=O)CCC(N)C(=O)O (stereo not shown) [S-thioeethylamine-GSSG + normal saline]
Leukemia P388 cells [1]; number of injection 0
  Accumulation of ascitic (weight gain, %): 0.7 ± 0.2%
Leukemia P388 cells [1]; number of injection 3
  Accumulation of ascitic (weight gain, %): 2.1 ± 0.4%
Leukemia P388 cells [1]; number of injection 7
  Accumulation of ascitic (weight gain, %): 8.2 ± 1.2%
Leukemia P388 cells [1]
  Mean survival time: 28.2 ± 0.8

## C[S+](C)[O-] [7% DMSO]
[2]; 0 hours
  number of clones of e-ras cells after UV-irradiation (M ± m): 268 ± 11
[2]; 24 hours
  number of clones of e-ras cells after UV-irradiation (M ± m): 171 ± 2
[2]; 48 hours
  number of clones of e-ras cells after UV-irradiation (M ± m): 108 ± 8
[2]; 72 hours
  number of clones of e-ras cells after UV-irradiation (M ± m): 103 ± 6
[3]; number of injection 0
  Accumulation of ascitic (weight gain, %): 0.5 ± 0.2%
[3]; number of injection 3
  Accumulation of ascitic (weight gain, %): 11.4 ± 1.1%
[3]; number of injection 7
  Accumulation of ascitic (weight gain, %): 24.6 ± 2.2%
[3]
  Mean survival time: 10.3 ± 1.8
Leukemia P388 cells [1]; number of injection 0
  Accumulation of ascitic (weight gain, %): 0.5 ± 0.1%
Leukemia P388 cells [1]; number of injection 3
  Accumulation of ascitic (weight gain, %): 5.4 ± 1.4%
Leukemia P388 cells [1]; number of injection 7
  Accumulation of ascitic (weight gain, %): 19.6 ± 1.6%
Leukemia P388 cells [1]
  Mean survival time: 20.6 ± 1.8
[4]; 0 hours of incubation
  number of REF cells (M ± m): 801 ± 12 × 10^3 cells
[4]; 24 hours of incubation
  number of REF cells (M ± m): 1420 ± 17 × 10^3 cells
[4]; 48 hours of incubation
  number of REF cells (M ± m): 2651 ± 36 × 10^3 cells
[4]; 72 hours of incubation
  number of REF cells (M ± m): 5298 ± 39 × 10^3 cells
[5]; 0 hours
  number of REF cells after UV-irradiation (M ± m): 801 ± 12 × 10^3 cells
[5]; 24 hours
  number of REF cells after UV-irradiation (M ± m): 420 ± 17 × 10^3 cells
[5]; 48 hours
  number of REF cells after UV-irradiation (M ± m): 251 ± 36 × 10^3 cells
[5]; 72 hours
  number of REF cells after UV-irradiation (M ± m): 208 ± 39 × 10^3 cells
[6]; 0 hours of incubation
  number of clones of e-ras cells (M ± m): 268 ± 11
[6]; 24 hours of incubation
  number of clones of e-ras cells (M ± m): 271 ± 2
[6]; 48 hours of incubation
  number of clones of e-ras cells (M ± m): 268 ± 8
[6]; 72 hours of incubation
  number of clones of e-ras cells (M ± m): 243 ± 6
Leukemia L1210 cells [7]; number of injection 0
  Accumulation of ascitic (weight gain, %): 0.51 ± 0.1%
Leukemia L1210 cells [7]; number of injection 3
  Accumulation of ascitic (weight gain, %): 6.4 ± 1.4%
Leukemia L1210 cells [7]; number of injection 7
  Accumulation of ascitic (weight gain, %): 23.6 ± 2.6%
Leukemia L1210 cells [7]
  Mean survival time: 10.2 ± 0.8

## O=c1[nH]cnc2c1ncn2[C@@H]1O[C@H](CO)[C@@H](O)[C@H]1O [0.1% inosine, hypoxanthine-9-D-ribofuranoside]
Leukemia P388 cells [8]; 0 injections
  Accumulation of ascitic fluid (weight gain): 0.58 ± 0.13%
  Concentration in serum: IFNα: 81.4 ± 6.13 pg/mL
  Concentration in serum: IL-1: 36.7 ± 5.12 pg/mL
  Concentration in serum: IL-2: 16.50 ± 1.09 pg/mL
  Concentration in serum: IL-6: 115.0 ± 12.5 pg/mL
  Concentration in serum: TNFα: 122.0 ± 10.0 pg/mL
Leukemia P388 cells [8]; 3 daily injections
  Accumulation of ascitic fluid (weight gain): 6.8 ± 0.8%
  Concentration in serum: IFNα: 105. ± 11.3 pg/mL
  Concentration in serum: IL-1: 48.2 ± 7.13 pg/mL
  Concentration in serum: IL-2: 20.19 ± 1.54 pg/mL
  Concentration in serum: IL-6: 90.0 ± 7.11 pg/mL
  Concentration in serum: TNFα: 96.5 ± 8.7 pg/mL
Leukemia P388 cells [8]; 7 daily injections
  Accumulation of ascitic fluid (weight gain): 25.0 ± 2.22%
  Concentration in serum: IFNα: 184. ± 16.1 pg/mL
  Concentration in serum: IL-1: 31.0 ± 5.12 pg/mL
  Concentration in serum: IL-2: 13.40 ± 1.68 pg/mL
  Concentration in serum: IL-6: 129.0 ± 10.4 pg/mL
  Concentration in serum: TNFα: 144.8 ± 12.9 pg/mL
Leukemia P388 cells [8]; mice inoculated with leukemia P388 cells, daily injections till day 14 or death
  Mean survival time: 9.8 ± 0.21
[2]; 0 hours
  number of clones of e-ras cells after UV-irradiation (M ± m): 292 ± 11
[2]; 24 hours
  number of clones of e-ras cells after UV-irradiation (M ± m): 190 ± 8
[2]; 48 hours
  number of clones of e-ras cells after UV-irradiation (M ± m): 129 ± 8
[2]; 72 hours
  number of clones of e-ras cells after UV-irradiation (M ± m): 93 ± 8
[3]; number of injection 0
  Accumulation of ascitic (weight gain, %): 0.8 ± 0.2%
[3]; number of injection 3
  Accumulation of ascitic (weight gain, %): 11.9 ± 0.2%
[3]; number of injection 7
  Accumulation of ascitic (weight gain, %): 26.8 ± 2.1%
[3]
  Mean survival time: 10.1 ± 0.6
Leukemia P388 cells [1]; number of injection 0
  Accumulation of ascitic (weight gain, %): 0.5 ± 0.2%
Leukemia P388 cells [1]; number of injection 3
  Accumulation of ascitic (weight gain, %): 3.9 ± 0.4%
Leukemia P388 cells [1]; number of injection 7
  Accumulation of ascitic (weight gain, %): 16.6 ± 2.6%
Leukemia P388 cells [1]
  Mean survival time: 21.8 ± 0.6
[4]; 0 hours of incubation
  number of REF cells (M ± m): 811 ± 10 × 10^3 cells
[4]; 24 hours of incubation
  number of REF cells (M ± m): 1426 ± 24 × 10^3 cells
[4]; 48 hours of incubation
  number of REF cells (M ± m): 2642 ± 25 × 10^3 cells
[4]; 72 hours of incubation
  number of REF cells (M ± m): 5034 ± 128 × 10^3 cells
Leukemia L1210 cells [9]; 0 injections
  Accumulation of ascitic fluid (weight gain): 0.61%
  Concentration in serum: IFNα: 117.3 pg/mL
  Concentration in serum: IL-1: 41.0 pg/mL
  Concentration in serum: IL-2: 17.80 pg/mL
  Concentration in serum: IL-6: 108. pg/mL
  Concentration in serum: TNFα: 104.3 pg/mL
Leukemia L1210 cells [9]; 3 daily injections
  Accumulation of ascitic fluid (weight gain): 7.02%
  Concentration in serum: IFNα: 160.0 pg/mL
  Concentration in serum: IL-1: 55.6 pg/mL
  Concentration in serum: IL-2: 22.3 pg/mL
  Concentration in serum: IL-6: 91.0 pg/mL
  Concentration in serum: TNFα: 130.0 pg/mL
Leukemia L1210 cells [9]; 7 daily injections
  Accumulation of ascitic fluid (weight gain): 26.30%
  Concentration in serum: IFNα: 205. pg/mL
  Concentration in serum: IL-1: 36.40 pg/mL
  Concentration in serum: IL-2: 14.6 pg/mL
  Concentration in serum: IL-6: 119. pg/mL
  Concentration in serum: TNFα: 157.0 pg/mL
Leukemia L1210 cells [9]; mice inoculated with leukemia L1210 cells, daily injections till day 14 or death
  Mean survival time: 9.61 ± 0.18
[5]; 0 hours
  number of REF cells after UV-irradiation (M ± m): 811 ± 10 × 10^3 cells
[5]; 24 hours
  number of REF cells after UV-irradiation (M ± m): 426 ± 24 × 10^3 cells
[5]; 48 hours
  number of REF cells after UV-irradiation (M ± m): 262 ± 22 × 10^3 cells
[5]; 72 hours
  number of REF cells after UV-irradiation (M ± m): 234 ± 28 × 10^3 cells
[6]; 0 hours of incubation
  number of clones of e-ras cells (M ± m): 292 ± 11
[6]; 24 hours of incubation
  number of clones of e-ras cells (M ± m): 290 ± 8
[6]; 48 hours of incubation
  number of clones of e-ras cells (M ± m): 269 ± 8
[6]; 72 hours of incubation
  number of clones of e-ras cells (M ± m): 243 ± 8
HL-60 cells; 24 hours incubation
  number of HL-60 cells per well: 96 ± 8 × 10^4 cells
HL-60 cells; 48 hours incubation
  number of HL-60 cells per well: 152 ± 8 × 10^4 cells
HL-60 cells; 72 hours incubation
  number of HL-60 cells per well: 312 ± 21 × 10^4 cells
HL-60 cells; 96 hours incubation
  number of HL-60 cells per well: 527 ± 18 × 10^4 cells
Normal human lymphocytes; 24 hours incubation
  number of normal lymphocytes per well: 26 ± 4 × 10^4 cells
Normal human lymphocytes; 48 hours incubation
  number of normal lymphocytes per well: 78 ± 7 × 10^4 cells
Normal human lymphocytes; 72 hours incubation
  number of normal lymphocytes per well: 141 ± 12 × 10^4 cells
Normal human lymphocytes; 96 hours incubation
  number of normal lymphocytes per well: 216 ± 16 × 10^4 cells
Leukemia L1210 cells [7]; number of injection 0
  Accumulation of ascitic (weight gain, %): 0.56 ± 0.2%
Leukemia L1210 cells [7]; number of injection 3
  Accumulation of ascitic (weight gain, %): 7.9 ± 0.4%
Leukemia L1210 cells [7]; number of injection 7
  Accumulation of ascitic (weight gain, %): 26.6 ± 2.4%
Leukemia L1210 cells [7]
  Mean survival time: 9.8 ± 0.6
